Measured values from US10722514B2 (FLX Bio, Inc., priority 2017, dated 2020).

The compounds below were run against T1, recombinant full-length USP7 (Homo sapiens, UniProt Q93009) (assay: USP7-mediated ubiquitin-rhodamine cleavage assay). Conditions: recombinant full-length USP7 62 pM; ubiquitin-rhodamine 100 nM; 30-minute incubation with compound, 1 hour reaction at room temperature; read-out: Potency: USP7 IC50.
T1 construct: A 25 μl reaction volume containing recombinant full-length USP7 (62 pM)
T1 sequence (Q93009 whole entry): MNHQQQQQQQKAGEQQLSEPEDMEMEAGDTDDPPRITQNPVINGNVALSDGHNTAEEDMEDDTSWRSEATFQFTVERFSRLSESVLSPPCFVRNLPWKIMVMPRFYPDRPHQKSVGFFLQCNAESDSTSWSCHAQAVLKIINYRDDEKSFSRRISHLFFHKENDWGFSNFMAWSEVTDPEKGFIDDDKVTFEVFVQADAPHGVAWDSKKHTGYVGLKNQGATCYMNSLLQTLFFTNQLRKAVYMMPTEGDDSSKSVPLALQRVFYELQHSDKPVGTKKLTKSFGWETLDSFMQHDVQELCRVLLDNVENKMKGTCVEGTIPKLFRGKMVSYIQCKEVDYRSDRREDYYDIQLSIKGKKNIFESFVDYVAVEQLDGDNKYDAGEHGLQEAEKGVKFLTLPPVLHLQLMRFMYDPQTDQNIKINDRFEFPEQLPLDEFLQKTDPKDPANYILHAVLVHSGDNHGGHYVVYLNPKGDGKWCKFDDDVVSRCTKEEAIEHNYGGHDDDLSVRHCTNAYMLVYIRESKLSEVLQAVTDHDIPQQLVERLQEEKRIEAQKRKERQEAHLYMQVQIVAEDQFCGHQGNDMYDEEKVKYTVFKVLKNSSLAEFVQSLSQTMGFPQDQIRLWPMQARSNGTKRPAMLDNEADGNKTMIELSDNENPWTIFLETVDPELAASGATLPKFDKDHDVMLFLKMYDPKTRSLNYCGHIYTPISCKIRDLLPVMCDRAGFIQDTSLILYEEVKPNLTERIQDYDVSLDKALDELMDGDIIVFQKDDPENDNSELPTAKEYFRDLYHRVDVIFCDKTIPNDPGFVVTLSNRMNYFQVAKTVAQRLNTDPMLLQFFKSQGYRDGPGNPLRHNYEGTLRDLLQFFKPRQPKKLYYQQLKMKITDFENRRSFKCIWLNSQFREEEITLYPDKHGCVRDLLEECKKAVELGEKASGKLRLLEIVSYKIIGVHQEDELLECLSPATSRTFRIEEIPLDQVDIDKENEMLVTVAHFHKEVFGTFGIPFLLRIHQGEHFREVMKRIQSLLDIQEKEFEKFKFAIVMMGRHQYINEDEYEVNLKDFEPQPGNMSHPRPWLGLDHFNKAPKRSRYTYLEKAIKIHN
Format: biochemical
Procedure, shortened: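 After compound and enzyme (62 pM) sat together 30 min at RT, 100 nM fluorogenic ubiquitin-rhodamine substrate was added for 1 h protected from light. Acetic acid quenched the reaction prior to the fluorescence read.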

IC50 | Compound
< 1 µM | 3-((7-(5-Chloro-3-methyl-2-(((1R,3R)-3-morpholinocyclopentyl)oxy)phenyl)thieno[3,2-b]pyridin-2-yl)methyl)-1-(2,2,2-trifluoroethyl)pyrimidine-2,4(1H,3H)-dione [Example 246]
< 1 µM | Cc1cc(C(=O)O)cc(-c2ccnc3cc(Cn4c(=O)ccn(CC(F)(F)F)c4=O)sc23)c1O[C@H]1CCCNC1 [Example 291, 3-[2-[[2,6-dioxo-3-(2,2,2-trifluoroethyl)pyrimidin-1-yl]methyl]thieno[3,2-b]pyridin-7-yl]-5-methyl-4-[[(3S)-3-piperidyl]oxy]benzoic acid]
< 1 µM | Cc1cc(Cl)cc(-c2ncnc3cc(CN4C(=O)C5C(C4=O)C5(C)C)sc23)c1O[C@@H]1CCNC[C@@H]1F (stereo partly drawn) [Example 377, 3-[[4-[5-chloro-2-[[(3S,4R)-3-fluoro-4-piperidyl]oxy]-3-methyl-phenyl]thieno[3,2-d]pyrimidin-6-yl]methyl]-6,6-dimethyl-3-azabicyclo[3.1.0]hexane-2,4-dione; 2,2,2-trifluoroacetic acid]
10 to 30 µM | Cc1cc(Cl)cc(-c2ccnc3ccsc23)c1OC1CCN(C)CC1 [Example 187, 7-(5-Chloro-3-methyl-2-((1-methylpiperidin-4-yl)oxy)phenyl)thieno[3,2-b]pyridine]
< 1 µM | Cc1cc(Cl)cc(-c2ccnc3cc(CN4C(=O)CCC4=O)sc23)c1OCC1(F)CNC1 [Example 15, 1-((7-(5-Chloro-2-((3-fluoroazetidin-3-yl)methoxy)-3-methylphenyl)thieno[3,2-b]pyridin-2-yl)methyl)pyrrolidine-2,5-dione]
1 to 10 µM | Cc1cc(Cl)cc(-c2ncnc3cc(CN4C(=O)CCC4=O)sc23)c1O[C@@H]1CNC[C@@H]1F [Example 113, 1-((4-(5-Chloro-2-(((3R,4S)-4-fluoropyrrolidin-3-yl)oxy)-3-methylphenyl)thieno[3,2-d]pyrimidin-6-yl)methyl)pyrrolidine-2,5-dione]

The next lines start with the compound.

Compound | IC50
Cc1cc(Cl)cc(-c2ccnc3cc(CN4C(=O)C5CC5C4=O)sc23)c1O[C@@H]1CCNC[C@H]1F (stereo partly drawn) [Example 293, 3-[[7-[5-chloro-2-[[(3R,4R)-3-fluoro-4-piperidyl]oxy]-3-methyl-phenyl]thieno[3,2-b]pyridin-2-yl]methyl]-3-azabicyclo[3.1.0]hexane-2,4-dione; 2,2,2-trifluoroacetic acid] | < 1 µM
Cc1cc(Cl)cc(-c2ccnc3cc(CN4C(=O)c5ccncc5C4=O)sc23)c1O[C@H]1CCCNC1 [Example 335, 2-[[7-[5-chloro-3-methyl-2-[[(3S)-3-piperidyl]oxy]phenyl]thieno[3,2-b]pyridin-2-yl]methyl]pyrrolo[3,4-c]pyridine-1,3-dione; 2,2,2-trifluoroacetic acid] | < 1 µM
CCC(O)c1cc2nccc(-c3cc(C#N)cc(C)c3OCC3(C)CNC3)c2s1 (stereo not drawn) [Example 31, 3-(2-(1-Hydroxypropyl)thieno[3,2-b]pyridin-7-yl)-5-methyl-4-((3-methylazetidin-3-yl)methoxy)benzonitrile] | 1 to 10 µM
Cc1cc(Cl)cc(-c2ccnc3cc(CO)sc23)c1OC[C@H]1CCCN1 [Example 58, (R)-(7-(5-Chloro-3-methyl-2-(pyrrolidin-2-ylmethoxy)phenyl)thieno[3,2-b]pyridin-2-yl)methanol] | 10 to 30 µM
Cc1cc(Cl)cc(-c2ccnc3cc(CN4C(=O)CCC4=O)sc23)c1O[C@@H]1CN[C@@H](C(F)F)C1 [Example 125, 1-((7-(5-Chloro-2-(((3S,5R)-5-(difluoromethyl)pyrrolidin-3-yl)oxy)-3-methylphenyl)thieno[3,2-b]pyridin-2-yl)methyl)pyrrolidine-2,5-dione] | 1 to 10 µM
Cc1cc(Cl)cc(-c2ccnc3cc(CO)sc23)c1OCC1CCNC1 (stereo not drawn) [Example 70, (7-(5-Chloro-3-methyl-2-(pyrrolidin-3-ylmethoxy)phenyl)thieno[3,2-b]pyridin-2-yl)methanol] | 10 to 30 µM

Same assay, conditions: recombinant full-length USP7 62 pM; ubiquitin-rhodamine 100 nM; 30-minute incubation, 1 hour reaction at room temperature; read-out: Potency (USP7 IC50)

IC50 | Compound
< 1 µM | Cc1cc(Cl)cc(-c2ccnc3cc(Cn4c(=O)ccn(CC(F)(F)F)c4=O)sc23)c1OC1CC2(COCCN2)C1 (stereo not drawn) [Example 697, 3-[[7-[5-chloro-3-methyl-2-(8-oxa-5-azaspiro[3.5]nonan-2-yloxy)phenyl]thieno[3,2-b]pyridin-2-yl]methyl]-1-(2,2,2-trifluoroethyl)pyrimidine-2,4-dione]
< 1 µM | Cc1cc(Cl)cc(-c2ccnc3cc(Cn4c(=O)ccn(CC(F)(F)F)c4=O)sc23)c1O[C@H]1C[C@@H]2NCCO[C@@H]2C1 [Example 696, 3-[[7-[2-[[(4aS,6S,7aR)-2,3,4,4a,5,6,7,7a-octahydrocyclopenta[b][1,4]oxazin-6-yl]oxy]-5-chloro-3-methyl-phenyl]thieno[3,2-b]pyridin-2-yl]methyl]-1-(2,2,2-trifluoroethyl)pyrimidine-2,4-dione]

Same assay, conditions: recombinant full-length USP7 62 pM; ubiquitin-rhodamine 100 nM; 30-minute pre-incubation, 1 hour reaction at room temperature; read-out: Potency (USP7 IC50)

IC50 | Compound
< 1 µM | CCn1ccc(=O)n(Cc2cc3nccc(-c4cc(Cl)cc(C)c4O[C@@H]4CNC[C@@H]4F)c3s2)c1=O [Example 452, 3-[[7-[5-chloro-2-[(3R,4S)-4-fluoropyrrolidin-3-yl]oxy-3-methyl-phenyl]thieno[3,2-b]pyridin-2-yl]methyl]-1-ethyl-pyrimidine-2,4-dione]
< 1 µM | Cc1cc(Cl)cc(-c2ncnc3cc(Cn4c(=O)ccn(CC(F)(F)F)c4=O)sc23)c1O[C@@H]1CNC[C@@H]1F [Example 525, 3-[[4-[5-chloro-2-[(3R,4S)-4-fluoropyrrolidin-3-yl]oxy-3-methyl-phenyl]thieno[3,2-d]pyrimidin-6-yl]methyl]-1-(2,2,2-trifluoroethyl)pyrimidine-2,4-dione]
< 1 µM | Cc1cc(Cl)cc(-c2ccnc3cc(Cn4c(=O)ccn(CC(F)(F)F)c4=O)sc23)c1O[C@@H]1CCN(Cc2cnoc2)C[C@@H]1C [Example 648, 3-[[7-[5-chloro-2-[[(3S,4R)-1-(isoxazol-4-ylmethyl)-3-methyl-4-piperidyl]oxy]-3-methyl-phenyl]thieno[3,2-b]pyridin-2-yl]methyl]-1-(2,2,2-trifluoroethyl)pyrimidine-2,4-dione]
< 1 µM | COC(=O)[C@@H]1C[C@H](Oc2c(C)cc(Cl)cc2-c2ccnc3cc(Cn4c(=O)ccn(CC(F)(F)F)c4=O)sc23)CN1 [Example 652, methyl (2S,4S)-4-[4-chloro-2-[2-[[2,6-dioxo-3-(2,2,2-trifluoroethyl)pyrimidin-1-yl]methyl]thieno[3,2-b]pyridin-7-yl]-6-methyl-phenoxy]pyrrolidine-2-carboxylate]
< 1 µM | Cc1cc(Cl)cc(-c2ccnc3cc(Cn4c(=O)ccn(C(C)C)c4=O)sc23)c1O[C@H]1CCNC[C@@H]1F [Example 563, 3-[[7-[5-chloro-2-[[(3S,4S)-3-fluoro-4-piperidyl]oxy]-3-methyl-phenyl]thieno[3,2-b]pyridin-2-yl]methyl]-1-isopropyl-pyrimidine-2,4-dione]

Further lines, the compound ahead of its results:

Compound | IC50
Cc1cc(Cl)cc(-c2ccnc3cc(Cn4c(=O)ccn(CC(F)(F)F)c4=O)sc23)c1O[C@@H]1CNC[C@@H]1F [Example 485, 3-[[7-[5-chloro-2-[(3R,4S)-4-fluoropyrrolidin-3-yl]oxy-3-methyl-phenyl]thieno[3,2-b]pyridin-2-yl]methyl]-1-(2,2,2-trifluoroethyl)pyrimidine-2,4-dione] | < 1 µM
Cc1cc(Cl)cc(-c2ccncc2CCCN2C(=O)CCC2=O)c1OC1CCNCC1 [Example 411, 1-[3-[4-[5-chloro-3-methyl-2-(4-piperidyloxy)phenyl]-3-pyridyl]propyl]pyrrolidine-2,5-dione; 2,2,2-trifluoroacetic acid] | 1 to 10 µM
Cc1cc(Cl)cc(-c2ccnc3cc(Cn4c(=O)c(C)cn(CC(F)(F)F)c4=O)sc23)c1O[C@H]1CCCNC1 [Example 557, 3-[[7-[5-chloro-3-methyl-2-[[(3S)-3-piperidyl]oxy]phenyl]thieno[3,2-b]pyridin-2-yl]methyl]-5-methyl-1-(2,2,2-trifluoroethyl)pyrimidine-2,4-dione] | < 1 µM
Cc1cc(Cl)cc(-c2ccnc3cc(Cn4c(=O)ccn(CC(F)(F)F)c4=O)sc23)c1O[C@H]1CCCNC1 [Example 484, 3-[[7-[5-chloro-3-methyl-2-[[(3S)-3-piperidyl]oxy]phenyl]thieno[3,2-b]pyridin-2-yl]methyl]-1-(2,2,2-trifluoroethyl)pyrimidine-2,4-dione] | < 1 µM
Cc1cc(Cl)cc(-c2ncnc3cc(Cn4c(=O)ccn(CC(F)(F)F)c4=O)sc23)c1O[C@H]1CCCNC1 [Example 517] | < 1 µM
Cc1cc(Cl)cc(-c2ccnc3cc(Cn4c(=O)ccn(C)c4=O)sc23)c1O[C@H]1CCCN(CCO)CC1 [Example 494, 3-[[7-[5-chloro-2-[(4S)-1-(2-hydroxyethyl)azepan-4-yl]oxy-3-methyl-phenyl]thieno[3,2-b]pyridin-2-yl]methyl]-1-methyl-pyrimidine-2,4-dione] | < 1 µM
Cc1cc(Cl)cc(-c2ccnc3cc(Cn4c(=O)ccn(CC(F)(F)F)c4=O)sc23)c1OC1CC(C)(N2CCOCC2)C1 (stereo not drawn) [Example 613, 3-[[7-[5-chloro-3-methyl-2-(3-methyl-3-morpholino-cyclobutoxy)phenyl]thieno[3,2-b]pyridin-2-yl]methyl]-1-(2,2,2-trifluoroethyl)pyrimidine-2,4-dione; 2,2,2-trifluoroacetic acid] | < 1 µM
Cc1cc(Cl)cc(-c2ccnc3cc(Cn4c(=O)ccn(C)c4=O)sc23)c1O[C@@H]1CNC[C@@H](O)C1 [Example 500, 3-[[7-[5-chloro-2-[[(3S,5S)-5-hydroxy-3-piperidyl]oxy]-3-methyl-phenyl]thieno[3,2-b]pyridin-2-yl]methyl]-1-methyl-pyrimidine-2,4-dione] | < 1 µM
